Assay results published in PubChem BioAssay (NCI).
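The compound was tested at five concentrations on cells cultured in 96-well plates, with a 48-hour exposure period. GI50 = concentration required for 50% inhibition of growth. TGI: total growth inhibition.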

Key:
Assay in all cases: NCI tumour cell line growth inhibition, 48 h
A549 NSCLC = system: A549 NSCLC
COLO 205 colon = system: COLO 205 colon
HOP-92 NSCLC = system: HOP-92 NSCLC
LOX IMVI melanoma = system: LOX IMVI melanoma
M14 melanoma = system: M14 melanoma
MCF7 breast = system: MCF7 breast
NCI-H460 lung = system: NCI-H460 lung
OVCAR-3 ovarian = system: OVCAR-3 ovarian
SK-MEL-5 melanoma = system: SK-MEL-5 melanoma
SK-OV-3 ovarian = system: SK-OV-3 ovarian

Structure (SMILES)	GI50 (A549 NSCLC) [µM]	TGI (A549 NSCLC) [µM]	GI50 (COLO 205 colon) [µM]	TGI (COLO 205 colon) [µM]	GI50 (HOP-92 NSCLC) [µM]	TGI (HOP-92 NSCLC) [µM]	GI50 (LOX IMVI melanoma) [µM]	TGI (LOX IMVI melanoma) [µM]	GI50 (M14 melanoma) [µM]	TGI (M14 melanoma) [µM]	GI50 (MCF7 breast) [µM]	TGI (MCF7 breast) [µM]	GI50 (NCI-H460 lung) [µM]	TGI (NCI-H460 lung) [µM]	GI50 (OVCAR-3 ovarian) [µM]	TGI (OVCAR-3 ovarian) [µM]	GI50 (SK-MEL-5 melanoma) [µM]	TGI (SK-MEL-5 melanoma) [µM]	GI50 (SK-OV-3 ovarian) [µM]	TGI (SK-OV-3 ovarian) [µM]
OC(COc1cccc2ccccc12)CN1CCN(c2ccccc2)CC1 (stereo unspecified)	19.3	36.6	16.4	30.9	4.86	19	15.8	31.1	15.5	29.7	17.3	31.9	15.9	31	15.1	28.8	15.9	29.9	17	32.4
O=C(c1cccs1)c1c(C(F)(F)F)n([O-])c2ccc(F)cc2[n+]1=O	2.32	7.02	0.456	1.62	0.914	2.48	0.971	2.67	1.54	3	0.454	3.12	1.38	3.84	0.793	2.35	1.22	2.51	1.85	3.59
CC(=O)OC[C@]12CC[C@@H]([C@@H](C)C(N)=O)[C@@H]1[C@H]1CC[C@@H]3[C@@]4(C)CC[C@H](OC(C)=O)C(C)(C)[C@@H]4CC[C@@]3(C)[C@]1(C)CC2	3.97	47.5	4.31	25	5.21	19.4	10.2	24.4	7.38	31.6	3.27	12.4	13.4	30.9	3.95	13.3	3.8	13.1	13.4	64
O=C1c2ccccc2-c2c1c1ccccc1c(=O)n2CCCN1CCN(CCCn2c3c(c4ccccc4c2=O)C(=O)c2ccccc2-3)CC1	> 100	> 100	> 100	> 100	19.9	74.1	> 88.3	> 100	> 100	> 100	> 100	> 100	> 68	> 100	> 100	> 100	> 100	> 100	> 100	> 100
NC(=O)C(NC=O)c1ccccc1 (stereo unspecified)		> 100		> 100		> 100		> 100		> 100		> 100		> 100		> 100		> 100		> 100
COC(=O)c1ccc([N+](=O)[O-])c(O)c1		> 100		> 100		> 100		> 100		> 100		> 100		> 100		> 100		> 100		> 100
CCC1CC(=O)N(SCC(N)C(=O)O)C1=O (stereo unspecified)		> 100		> 100		> 100		> 100		> 100		> 100		> 100		> 100		> 100		> 100
C=C1CCC2C3(C)COC(c4ccc(SC)cc4)OC3CCC2(C)C1C/C=C1/C(=O)OCC1O (stereo unspecified)	5.31	18.4	7.72	20.6	5.19	17.1	1.44	3.01	6.53	17.7	3.04	11.7	8.78	22.3	2.8	6.91	6.85	19.4	16.3	32
O=C(O)CCCCn1cnc2c(=S)nc[nH]c21		> 100		> 100		> 100		> 100		> 100		> 100		> 100		> 100		> 100		> 100
CN1c2ccccc2S(=O)(=O)n2c(COc3ccc(Cl)cc3)nnc21		> 100		> 100		63.2		> 100		> 100		> 100		> 100		> 100		> 100		> 100
COc1ccc(C2=C(c3cc(OC)c(OC)c(OC)c3)C(=O)CC2)cc1	0.193	> 100	0.218	1.17	1.68	54.1	0.441	> 100	0.107	4.01	0.0585	> 100	0.224		0.0598	0.242	0.123	6.24	0.179	
Cc1nc(/N=C(\N)NC(=O)Nc2ccccc2Cl)sc1C	0.675	> 100	0.474	4.57	1.54	15.8	0.533	> 100	0.314	18.7	0.359	> 100	0.367	1.62	0.299	1.28	0.508	7.39	0.735	5.54
O=C(NNC(=O)c1ccncc1)c1ccncc1		> 100		> 100		> 100		> 100		> 100		> 100		> 100		> 100		> 100		> 100
CC1OC(OC2CC(O)C3(CO)C4C(O)CC5(C)C(C6=CC(=O)OC6)CCC5(O)C4CCC3(O)C2)C(O)C(O)C1O (stereo unspecified)	< 0.0109	< 0.0138	0.0239	0.116	0.0216	0.0791	< 0.0196	0.0457	0.0212	0.0784	< 0.0163	0.29	< 0.0111	0.0174	< 0.013	< 0.0171	< 0.0151	0.0267	0.0157	0.0552
COc1ccc(/C=C/c2cc(N3CCOCC3)c3cc(F)c(F)cc3n2)cc1OC	1.67	8.99	0.558	3.81	1.36	6.53	0.516	2.27	0.762	3.92	0.389	9.48	0.526	3.72	0.351	2.26	0.52	2.37	1.32	9.17
O=S1(=O)CS(=O)(=O)OCCCO1		> 100		> 100		> 100		> 100		> 100		> 100		> 100		> 100		> 100		> 100
COc1ccc(/C=C\c2cc(OC)c(OC)c(OC)c2)cc1OC(=O)c1cccc(Cn2cc(CCOC(=O)c3cccc(Cn4nnc5c4C(=O)c4ccccc4C5=O)c3)nn2)c1	0.0392	> 37.9	0.344		0.464	33.7	0.0149	> 100	< 0.01	10.9	0.0216	> 70.5	< 0.01	12.6	< 0.01		< 0.01	0.0474	2.73	46.7
